Experimental data reported in patent US7799795B2, “Aryl nitrile compounds and compositions and their uses in treating inflammatory and related disorders” (Amgen Inc., priority 2005, dated 2010).
Where two headings read alike, the source gives them in different places. Each block holds one compound with its values, some of them ahead of it.

What was measured:
CXCR3 [1] = biological target: T1, CXCR3 (Homo sapiens, UniProt P49682); assay: CXCR3 binding assay in binding buffer (125I-labelled chemokine, CXCR3-expressing cells); settings: absence of human plasma
T1 construct: ChemoCentryx
T1 sequence (P49682 1-368): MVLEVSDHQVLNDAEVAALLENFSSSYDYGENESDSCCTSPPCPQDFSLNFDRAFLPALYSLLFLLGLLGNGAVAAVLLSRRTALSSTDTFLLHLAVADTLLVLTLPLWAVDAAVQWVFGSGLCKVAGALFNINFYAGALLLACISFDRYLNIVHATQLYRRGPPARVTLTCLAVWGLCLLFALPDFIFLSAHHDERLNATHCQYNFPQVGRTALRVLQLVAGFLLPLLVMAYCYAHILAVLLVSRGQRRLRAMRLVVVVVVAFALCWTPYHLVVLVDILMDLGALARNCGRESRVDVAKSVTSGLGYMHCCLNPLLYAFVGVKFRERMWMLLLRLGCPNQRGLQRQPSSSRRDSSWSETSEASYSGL
Description: (§1) CXCR3 Binding Assay: CXCR3 binding assays were conducted as previously described (see, e.g., Example 12 in WO 02/083143, incorporated herein by reference in its entirety), in the absence (“binding buffer”) or presence of human plasma. Unless otherwise noted, all reagents used are available from commercial sources (e.g., Sigma-Aldrich, St. Louis, Mo., USA). Test compounds are diluted in DMSO to a concentration that is 40-times the intended final assay concentration; 5 μL are transferred to each well of a 96-well flat-bottomed polypropylene plate (e.g., from Greiner, Inc.). CXCR3-expressing cells obtained from ChemoCentryx were used in the assays to generate the data set forth below. The cells were resuspended in assay buffer (25 mM Hepes, 80 mM NaCl, 1 mM CaCl2, 5 mM MgCl2, 0.2% bovine serum albumin, pH 7.1, stored at 4° C.) at 5 million cells per mL; 100 μL of this cell suspension is then transferred to each well of a 96-well plate containing the diluted test compounds. ^125I-labelled chemokine (purchased from commercial sources, e.g., Amersham, PE Life Sciences) is diluted in assay buffer to a concentration of approximately […]; 100 μL of this chemokine solution is transferred to each well of a 96-well plate containing compounds and cell suspension. The plates are sealed with commercially available foil plate seals (e.g., from E&K Scientific), and stored at 4° C. for a period of 2 to 4 h, shaking gently. At the end of this incubation period, the contents of the assay plates are transferred to GF/B filter plates (Packard) that have been pre-coated by dipping into a solution containing 0.3% polyethyleneimine (Sigma-Aldrich), using a cell harvester (Packard), and washing twice with wash buffer (25 mM Hepes, 500 mM NaCl, 1 mM CaCl2, 5 mM MgCl2, pH 7.1, stored at room temperature). The filter plates are sealed on the bottom with plate seals (Packard), 50 μL of Microscint-20 scintillation fluid (Packard) is added to each well, and the top of the plates are sealed with clear plastic (TopSeal A, Packard). The plates are counted on a scintillation counter, such as a Packard TopCount. To measure non-specific binding, 4 wells containing unlabelled “cold” chemokine were included on each 96-well plate. To measure maximum binding, 4 wells containing 5 μL of DMSO, 100 μL of cell suspension and 100 μL of ^125I-labelled chemokine solution were included on each 96-well plate. Data were analyzed using commercially available software (e.g., Excel from Microsoft, Prism from GraphPad Software Inc.).

CXCR3 [2] = biological target: T1, CXCR3; assay: CXCR3 binding assay in presence of human plasma
Description: as §1

[3] = tested on: Human peripheral blood mononuclear cells (PBMCs); assay: I-TAC migration assay; type: cell-based; settings: PBMC; activated human PBMCs, human ITAC, in human plasma
Description: I-TAC migration assay: Human peripheral blood mononuclear cells (PBMCs) were activated with OKT3 (purified by AB solutions from hybridoma cell line OKT3 (ATCC CRL-8001)) and IL-2 (Peprotech, Inc., Rocky Hill, N.J., USA). After fourteen days, the cells were loaded with chloromethyl-fluoroscein-diacetate (CMFDA) (Molecular Probes, Inc.) by incubating the activated PBMCs in 1 ng/mL CMFDA for >1.5 hours at 37° C. in a tissue culture incubator. While cells were loading, the test compounds were diluted in DMSO to a concentration that is 100-times the intended final assay concentration. Next, 100 ng/mL of human ITAC (Peprotech) in human plasma (EDTA, drug free, Biological Specialty Corp) was prepared. Test compounds were added to the human ITAC preparation. Cells were washed once in prewarmed (37° C.) RPMI (Invitrogen) media with 0.5% BSA and resuspended to 5 million cells/ml in human plasma. The test compounds were added to the PBMCs. A 96-well chemotaxis migration plate (NeuroProbe, Inc.) was assembled by adding, per well, 30 uL of ITAC/compound mixture in the lower chamber, placing the […] membrane on top of the ITAC/compound well, and adding 50 uL of the PBMC/compound mixture to the well. The plates were covered and incubated in a humidified tissue culture incubator for 2.5 hours. A standard curve of CMFDA-loaded cells to be used as a reference for the test plates was prepared. Migration plates were disassembled and are read in a fluorometric plate reader set to 475 nm absorbance, 517 nm emission. The fluorometric reading was converted to cell number using the standard curve and calculating the percentage of migrating cells.

CYP3A4 [4] = assay: Time dependent CYP inhibition assay (midazolam, pooled human liver microsomes); settings: preincubation with NADPH, midazolam marker substrate
Description: (§3) CYP Inhibition Assay: Time dependent CYP inhibition assays were initiated by incubating a test compound in 0.1 mM phosphate buffer containing pooled human liver microsomes (1 mg/mL protein) in the presence of NADPH for 0, 15 and 30 minutes. At each time point, an aliquot of the preincubation mixture was removed and added to 0.1 mM phosphate buffer containing marker substrate (midazolam) and fresh NADPH. The residual CYP activity, after the preincubation times of 0, 15, and 30 minutes, was monitored for 5 minutes. Data are expressed as the % 1-OH midazolam formation at 15 minutes compared to that formed at 0 minutes. […] DMSO (vehicle control) caused an approximate 10% drop in CYP activity over 15 minutes.

Rat PK PO = type: in vivo; settings: Sprague-Dawley, plasma; for bioavailability: read-out: Rat PK PO F %
Description: In Vivo Metabolic Evaluation in Rat: To study the metabolic fate of test compounds in vivo, Sprague-Dawley (SD) rats were administered (orally gavage) test compound in suspension. Blood samples (˜0.3 mL/timepoint) were collected at 1, 2, 4, 8, 24, 30 and 48 hours post-dose into EDTA containing tubes. All blood samples were collected via tail artery venipuncture under isofluorane anesthesia. Blood samples were processed for plasma by centrifugation and stored frozen until analysis (−20° to −70° C.). Samples were analyzed using a sensitive and selective LC/MS/MS method. Briefly, samples were prepared for analysis using protein precipitation. An aliquot of the resulting supernatant was subjected to LC/MS/MS analysis. Separation of the analytes from endogenous material was achieved using an reverse phase HPLC. Column effluent was monitored using a Sciex API 365 triple quadrapole mass spectrometer with a Sciex TurboIon Spray probe. Unknown concentrations of testing articles were determined using a calibration curve from 1 to 2000 ng/mL.
(§2) Pharmacokinetics of exemplary compounds of the invention was assessed in rats.

Rat PK (IV) = settings: in vivo
Description: as §2

CYP3A4 [5] = settings: microsomes
Description: as §3

Compound: CCS(=O)(=O)CCN(C(=O)Cc1ccc(F)c(C(F)(F)F)c1)[C@H](C)c1nc2ncccc2c(=O)n1-c1ccc(O)cc1
- Time Dependent CYP3A4 Inhibition (CYP3A4 [4]): Yes

Compound: CCOc1ccc(-c2c([C@@H](C)N(CCS(=O)(=O)CC)C(=O)Cc3ccc(F)c(C(F)(F)F)c3)nc3ccccn3c2=O)cc1
- IC50 (CXCR3 [1]): 0.001 µM
- IC50 (CXCR3 [2]): 0.057 µM
- IC50 [3]: 0.183 µM

Compound: CCS(=O)(=O)CCN(C(=O)Cc1ccc(F)c(C(F)(F)F)c1)[C@H](C)c1nc2ccccn2c(=O)c1-c1ccc(O)cc1
- Time Dependent CYP3A4 Inhibition (CYP3A4 [4]): Yes
- IC50 (CXCR3 [1]): 0.816 µM
- IC50 (CXCR3 [2]): 4.08 µM

Compound: CCS(=O)(=O)CCN(C(=O)Cc1ccc(F)c(C(F)(F)F)c1)[C@H](C)c1nc2ccccn2c(=O)c1-c1ccc(C#N)cc1
- IC50 [3]: 0.041 µM

Compound: CCOc1ccc(-c2c([C@@H](C)N(CCS(=O)(=O)CC)C(=O)Cc3ccc(F)c(C(F)(F)F)c3)nc3ncccn23)cc1
- IC50 (CXCR3 [1]): 0.004 µM
- IC50 (CXCR3 [2]): 0.07 µM
- IC50 [3]: 1.5 µM

Compound: CCS(=O)(=O)CCN(C(=O)Cc1ccc(C(F)(F)F)c(F)c1)[C@H](C)c1nc2ncccn2c(=O)c1-c1ccc(C#N)cc1
- MRT (Rat PK PO): 3.96 h
- bioavailability (Rat PK PO): 24%
- Vd (Rat PK (IV); read-out: Rat PK(IV) Vdss): 0.31 L/kg

Compound: CCS(=O)(=O)CCN(C(=O)Cc1ccc(F)c(C(F)(F)F)c1)[C@H](C)c1nc2ncccc2c(=O)n1-c1ccc(C#N)cc1 [drawing 192]
- IC50 [3]: 0.12 µM
- Time Dependent CYP3A4 Inhibition (CYP3A4 [5]): NO

Further lines, with some results ahead:

- IC50 (CXCR3 [1]): 0.001 µM
- IC50 (CXCR3 [2]): 0.007 µM
Compound: CCOc1ccc(-n2c([C@@H](C)N(CCS(=O)(=O)CC)C(=O)Cc3ccc(F)c(C(F)(F)F)c3)nc3ncccc3c2=O)cc1
- IC50 [3]: 0.022 µM

- Time Dependent CYP3A4 Inhibition (CYP3A4 [4]): Yes
- IC50 (CXCR3 [1]): 10 µM
- IC50 (CXCR3 [2]): 10 µM
Compound: CCS(=O)(=O)CCN(C(=O)Cc1ccc(F)c(C(F)(F)F)c1)[C@H](C)c1nc2ncccn2c1-c1ccc(O)cc1

- IC50 (CXCR3 [1]): 0.01 µM
- IC50 (CXCR3 [2]): 0.049 µM
Compound: CCS(=O)(=O)CCN(C(=O)Cc1ccc(F)c(C(F)(F)F)c1)[C@H](C)c1nc2ncccn2c1-c1ccc(C#N)cc1
- IC50 [3]: 0.083 µM

- MRT (Rat PK PO): 1.5 h
- bioavailability (Rat PK PO): 47.2%
- clearance (Rat PK (IV); read-out: Rat PK(IV) Cl (converted)): 39.7 mL/min/kg
Compound: CCS(=O)(=O)CCN(C(=O)Cc1ccc(F)c(C(F)(F)F)c1)[C@H](C)c1nc2ncccc2c(=O)n1-c1ccc(C#N)cc1 [drawing 199]
